Results taken from patent US20040059140A1, “14(15)-unsaturated 15- and/or 16-substituted androgens with mixed androgen-progrestational profile” (priority 2000, published 2004).

Columns and labels:
[1] = biological target: T1, human androgen receptor (hAR) (Homo sapiens, UniProt P10275); assay: Androgenic activity (transactivation in CHO cells transfected with hAR, MMTV-luciferase, compared with 5α-dihydrotestosterone); type: cell-based; parameters: key: (−) very weak activity found; (+) activity found; (++) high activity; (+++) excellent activity; conditions: rated by scheme
T1 construct: expressed in transfected cells; host or cells: CHO (Chinese hamster ovary) cells
T1 sequence (P10275 1-920): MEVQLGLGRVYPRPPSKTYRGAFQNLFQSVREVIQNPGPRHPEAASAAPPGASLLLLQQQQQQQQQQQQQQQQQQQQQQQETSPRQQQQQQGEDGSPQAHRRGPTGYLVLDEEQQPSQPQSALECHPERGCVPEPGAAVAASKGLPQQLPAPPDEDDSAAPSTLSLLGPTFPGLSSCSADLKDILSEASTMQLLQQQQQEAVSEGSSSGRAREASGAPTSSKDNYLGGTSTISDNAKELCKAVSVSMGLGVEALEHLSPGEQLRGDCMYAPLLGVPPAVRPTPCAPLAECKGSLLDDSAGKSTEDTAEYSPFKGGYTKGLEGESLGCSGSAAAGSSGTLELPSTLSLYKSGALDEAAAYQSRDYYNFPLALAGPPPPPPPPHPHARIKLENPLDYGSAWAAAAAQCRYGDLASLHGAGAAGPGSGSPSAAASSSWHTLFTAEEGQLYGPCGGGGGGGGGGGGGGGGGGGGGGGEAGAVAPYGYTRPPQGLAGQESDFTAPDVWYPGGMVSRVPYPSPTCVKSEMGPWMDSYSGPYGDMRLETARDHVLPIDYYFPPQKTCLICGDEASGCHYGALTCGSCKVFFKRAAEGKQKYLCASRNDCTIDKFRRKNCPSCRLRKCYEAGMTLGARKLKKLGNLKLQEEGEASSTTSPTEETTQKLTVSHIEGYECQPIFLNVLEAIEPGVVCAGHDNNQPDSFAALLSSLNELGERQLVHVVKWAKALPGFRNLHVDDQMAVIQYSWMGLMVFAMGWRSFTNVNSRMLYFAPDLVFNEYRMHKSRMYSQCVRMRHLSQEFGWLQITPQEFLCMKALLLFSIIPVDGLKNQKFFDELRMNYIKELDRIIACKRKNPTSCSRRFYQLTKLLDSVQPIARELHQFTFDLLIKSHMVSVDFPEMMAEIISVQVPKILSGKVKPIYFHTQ
From the text: Androgenic activity can be measured in various ways. Thus, the potency of androgens can be determined in vitro using the cytoplasmic androgen receptor from human breast tumor cells (MCF-7 cell line); see Bergink, E. W. et al, Comparison of the receptor binding properties of nandrolone and testosterone under in vitro and in vivo conditions, J. Steroid Biochem. 22, 831-836 (1985). […] The transactivative androgen activity of the compounds of the invention can be measured, e.g. in Chinese hamster ovary cells (CHO) transfected with the human androgen receptor (hAR), in combination with a mouse mammary tumor virus (MMTV), and luciferase receptor gene (incubation time 16 h, temperature 37° C.) and compared with the activity of 5α-dihydrotestosterone [according to the procedure described by Schoonen, W. G. E. J. et al, Analyt. Biochem. 261, 222-224 (1998)]. For the in vivo potency determination of androgens the classical Hershberger test can be used. In this test the androgenic (increase in prostate weight) and anabolic activities [increase of the musculus levator ani (MLA)] of a compound are tested in immature castrated rats after daily administration for 7 days; see Hershberger, L. G. et al, Myotrophic activity of 19-Nortestosterone and other steroids determined by modified levator ani muscle method, Proceedings of the society for experimental biology and medicine 83, 175-180 (1953). Additionally, the effect of an androgenic compound on LH suppression can be tested in mature castrated rats according to Kumar, N. et al, The biological activity of 7alpha-methyl-19-nortestosteione is not amplified in male reproductive tract as is that of testosterone, Endocrinology 130, 3677-3683 (1992).
(§1) The compounds according to the invention were tested for androgenic activity and for progestational activity (the procedures for which have been described above) and rated according to the following scheme: […]

[2] = biological target: T2, human progesterone receptor B (hPRB) (Homo sapiens, UniProt P06401); assay: Progestational activity (transactivation in CHO cells transfected with hPRB, MMTV-luciferase, compared with (16α)-16-ethyl-21-hydroxy-19-norpregn-4-ene-3,20-dione); type: cell-based; parameters: key: (−) very weak activity found; (+) activity found; (++) high activity; (+++) excellent activity; conditions: rated by scheme
T2 construct: expressed in transfected cells; host or cells: CHO (Chinese hamster ovary) cells
T2 sequence (P06401 1-933): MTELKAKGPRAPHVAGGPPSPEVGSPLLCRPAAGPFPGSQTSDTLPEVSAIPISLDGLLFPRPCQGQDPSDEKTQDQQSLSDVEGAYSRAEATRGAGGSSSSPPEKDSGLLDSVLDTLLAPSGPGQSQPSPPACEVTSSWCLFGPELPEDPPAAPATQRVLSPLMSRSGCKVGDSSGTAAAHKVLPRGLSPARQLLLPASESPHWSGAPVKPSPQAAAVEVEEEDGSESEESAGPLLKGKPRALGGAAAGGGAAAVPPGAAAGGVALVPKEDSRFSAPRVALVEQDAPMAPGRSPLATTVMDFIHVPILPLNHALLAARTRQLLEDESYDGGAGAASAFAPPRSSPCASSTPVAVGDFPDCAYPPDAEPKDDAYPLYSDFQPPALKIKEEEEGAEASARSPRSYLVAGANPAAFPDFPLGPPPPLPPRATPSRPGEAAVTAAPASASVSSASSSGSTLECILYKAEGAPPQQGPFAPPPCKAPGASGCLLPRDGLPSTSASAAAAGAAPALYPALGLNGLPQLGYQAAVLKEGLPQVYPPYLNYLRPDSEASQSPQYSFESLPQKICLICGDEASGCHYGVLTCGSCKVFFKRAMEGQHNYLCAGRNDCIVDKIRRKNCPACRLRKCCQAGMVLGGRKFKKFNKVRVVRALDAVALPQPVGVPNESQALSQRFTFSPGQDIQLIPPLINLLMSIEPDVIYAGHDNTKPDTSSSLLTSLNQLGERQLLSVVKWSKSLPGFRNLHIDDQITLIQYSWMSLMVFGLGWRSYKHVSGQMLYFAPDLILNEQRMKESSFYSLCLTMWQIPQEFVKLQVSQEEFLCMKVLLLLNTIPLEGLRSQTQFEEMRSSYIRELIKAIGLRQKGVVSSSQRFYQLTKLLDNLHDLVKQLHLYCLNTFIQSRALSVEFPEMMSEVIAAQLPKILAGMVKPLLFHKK
Description: The transactivative progestagenic activity of the compounds of the invention can be measured, e.g. in Chinese hamster ovary cells (CHO) transfected with the human progesterone receptor B (hPRB), in combination with a mouse mammary tumor virus (MMTV), and luciferase receptor gene (incubation time 16 h, temperature 37° C.) and compared with the activity of (16α)-16-ethyl-21-hydroxy-19-norpregn-4-ene-3,20-dione [according to the procedure described by Schoonen, W. G. E. J. et al, Analyt. Biochem. 261, 222-224 (1998)].
as §1

SMILES | Androgenic activity [1] | Progestational activity [2] | melting point
CC[C@]12CC[C@H]3[C@H](C1=C(C)C[C@@H]2O)[C@H](C)CC1=CC(=O)CC[C@@H]13 [Example 5, (7α,17β)-13-Ethyl-17-hydroxy-7,15-dimethylgona-4,14-dien-3-one] | ++ | + | 
C[C@@H]1CC2=CC(=O)CC[C@@H]2[C@H]2CC[C@@]3(C)C(=CC[C@@H]3O)[C@@H]21 [Reference compound (Segaloff comp.*), (7α,17β)-7-methyl-17-hydroxyestra-4,14-dien-3-one, reference compound] | +++ | − | 
CC1=C2[C@H]3[C@H](CC[C@]2(C)[C@@H](O)C1)[C@H]1CCC(=O)C=C1C[C@H]3C [Example 1, (7α,17β)-17-Hydroxy-7,15-dimethylestra-4,14-dien-3-one] | ++ | ++ | 164 to 167 °C
C[C@@H]1C=C2[C@H]3[C@H](CC[C@]2(C)[C@H]1O)[C@H]1CCC(=O)C=C1C[C@H]3C [Example 7a, (7α,16α,17β)-17-Hydroxy-7,16-dimethylestra-4,14-dien-3-one] | ++ | + | 
C[C@H]1C=C2[C@@H]3CCC4=CC(=O)CC[C@@H]4[C@H]3CC[C@]2(C)[C@H]1O [Example 6b, (16β,17β)-17-hydroxy-16-methylestra-4,14-dien-3-one] | ++ | + | 
CC[C@@H]1CC2=C(CC[C@@H](O)C2)[C@H]2CC[C@@]3(C)C(=C(C)C[C@@H]3O)[C@H]12 [Example 8b, (3α,7α,17β)-7-ethyl-15-methylestra-5(10),14-diene-3,17-diol] | Prodrug | Prodrug | 
CCC1=C2[C@H]3[C@H](CC[C@]2(C)[C@@H](O)C1)[C@H]1CCC(=O)C=C1C[C@H]3C [Example 2, (7α,17β)-15-Ethyl-17-hydroxy-7-methylestra-4,14-dien-3-one] | + | ++ | 
CCC1=C2[C@@H]3[C@H](CC)CC4=CC(=O)CC[C@@H]4[C@H]3CC[C@]2(C)[C@@H](O)C1 [Example 4, (7α,17β)-7,15-Diethyl-17-hydroxyestra-4,14-dien-3-one] | + | + | 
CC[C@@H]1CC2=C(CCC(=O)C2)[C@H]2CC[C@@]3(C)C(=C(C)C[C@@H]3O)[C@H]12 [Example 8a, (7α,17β)-7-Ethyl-17-hydroxy-15-methylestra-5(10),14-dien-3-one] | Prodrug | Prodrug | 
CC[C@@H]1CC2=CC(=O)CC[C@@H]2[C@H]2CC[C@@]3(C)C(=C(C)C[C@@H]3O)[C@H]12 [Example 3, (7α,17β)-7-Ethyl-17-hydroxy-15-methylestra-4,14-dien-3-one] | ++ | + | 
CC[C@@H]1CC2=C(CC[C@H](O)C2)[C@H]2CC[C@@]3(C)C(=C(C)C[C@@H]3O)[C@H]12 [Example 8c, (3β,7α,17β)-7-ethyl-15-methylestra-5 (10),14-diene-3,17-diol] | Prodrug | Prodrug | 
C[C@@H]1C=C2[C@@H]3CCC4=CC(=O)CC[C@@H]4[C@H]3CC[C@]2(C)[C@H]1O [Example 6a, (16α,17β)-17-Hydroxy-16-methylestra-4,14-dien-3-one] | + | + | 
C=C[C@@H]1CC2=CC(=O)CC[C@@H]2[C@H]2CC[C@@]3(C)C(=C[C@@H](C)[C@@H]3O)[C@@H]21 [Example 7c, (7α,16α,17β)-17-Hydroxy-16-methyl-7-vinylestra-4,14-dien-3-one] | ++ | + | 
CC[C@@H]1CC2=CC(=O)CC[C@@H]2[C@H]2CC[C@@]3(C)C(=C[C@@H](C)[C@@H]3O)[C@H]12 [Example 7b, (7α,16α,17β)-17-Hydroxy-7-ethyl-16-metliylestra-4,14-dien-3-one] | ++ | + | 
